The term melting point denotes the temperature of the solid-liquid transition. On to `C#Cc1cc(C)c(C2=C(O)C3(CCN(OC)CC3)N(C)C2=O)c(C)c1`, for which the melting point fell in the range of 258 to 260 °C.
`CC12CCC3C(CC=C4CC(O)CCC43C)C1CC(Br)C2=O` (stereo not given): the melting point lay in the range of 167 to 168 °C.
Under `CC(=O)N1CCc2cc(CC(C)Br)ccc21` (stereo not given) stands 124 to 126 °C; under `CCOC(=O)C1=C2COCCN2C(C)=C(C(=O)OC)C1c1ccccc1Cl` (stereo not given), 141 to 143 °C; under `CC(=O)N1CCc2c(S(=O)(=O)Cl)ccc(Cl)c2C1`, 105 to 115 °C.
Under `COc1ccccc1-n1cnnc1C(F)(F)F` stands 62 °C.
For the molecule `O=c1[nH]c2cc3ccc(C(F)(F)F)cc3nc2[nH]1`, the melting point is greater than 250 °C.
For `CC(C)c1ccc(-c2ccc(C3N=C(c4ccccc4Cl)CC3C#N)cc2)cc1` (stereo not given), the melting point was 127 to 128 °C.
With `O=C1Nc2cc3c(cc2SC1CCCBr)OCO3` (stereo not given) the figure was 168 to 169 °C.
With `Cc1ccnc(C(=O)c2[nH]c3cc(F)ccc3c2CC(=O)O)c1` the figure was 208 °C; with `NCc1c(-c2ccc(O)cc2)nnn1-c1ccc(C(F)(F)F)cc1Cl`, 96.5 to 98.9 °C.
With `CC(=O)Nc1c(C(=O)c2ccccc2)[nH]c2ccc(F)cc12` the figure was 80 to 82 °C.
`O=C1C(c2cccc(Br)c2)n2cncc2CN1Cc1cccnc1` (stereo not given) yielded a melting point of 50 to 54 °C.
Under `[N-]=[N+]=Nc1cc(Oc2ccc3c(c2)CCN3C(=O)Nc2cccc(C(F)(F)F)c2)ncn1` stands 167 to 168 °C; under `CC(=O)c1cccc(N2C(=O)CCSC2=S)c1`, 197 to 199 °C; under `COCc1c(C(=O)c2ccccc2)ncc2[nH]c3ccc(Oc4ccc(Br)cn4)cc3c12`, 193 to 194 °C.
Under `O=C(O)c1ccc2c(CCCCN3CC=C(c4ccccc4)CC3)c[nH]c2c1` stands 268 °C.
With `NC(=O)c1ncn2c1CN=C(c1ccccc1Br)c1cc(F)ccc1-2` the figure was 298 to 299 °C.
Molecule `CCCOc1cc(OCCCc2cn(-c3ccc(C(F)(F)F)cn3)nc2OCC)ccc1CCC(=O)O` showed a melting point of 126 to 127 °C.
With `Clc1nc2ccccc2nc1OCCOc1ccccc1` the figure was 99.5 to 102 °C; with `COc1ccc2c(c1)Cc1cc(F)ccc1C(=O)C2`, 129 to 130 °C; with `CCNS(=O)(=O)c1ccc(-c2cnc3[nH]c(CCc4cc(OC)ccn4)nc3c2)cc1`, 214 to 216 °C.
With `O=c1cc(-c2ccc(OCc3ccccc3)cc2)oc2cc(OCc3ccccc3)cc(OCc3ccccc3)c12` the figure was 60 to 62 °C; with `COc1cc([N+](=O)[O-])c(N)cc1C(N)=O`, 250 to 257 °C; with `COc1ccc2c(c1)C(=O)c1c-2c(N2CCN(C(=O)CCNCCN(C)C)CC2)nc2ccccc12`, 161 to 162 °C.
Under `CC(=O)C=CCCc1ccc(OCc2ccccc2)cc1` stands 70 to 72 °C; under `Nc1c(F)c(N2CC3NCCOC3C2)c(F)c2c1c(=O)c(C(=O)O)cn2C1CC1F` (stereo not given), 292 to 294 °C; under `OCc1ccc(CCc2ccncc2)cc1`, 163 to 166 °C.
In the case of `O=C(O)c1ccc(-c2nc(-c3ccc(Cl)s3)co2)cc1`, the melting point was 300 °C.
Under `CCCCN(CCCC)c1nnc(N)s1` stands 116 to 117 °C.
With `CCc1nc(O)c2c(n1)c(C)nn2CC` the figure was 192 to 194 °C; with `NC(=O)C(=C1CSc2ccccc2N1)c1ccc(Cl)cc1`, 188 to 191 °C.
With `C=CCc1ccc(C[C@H](NC(=O)OC(C)(C)C)C(=O)OC)cc1` the figure was 56 to 59 °C; with `CC(=O)Nc1ccc(C#Cc2ccc(C3CC4CCCC(C3)N4C)nn2)cc1` (stereo not given), 270 to 271 °C; with `CCCC(=O)Nc1ccc(-n2cc(CCCOc3c(CC(=O)O)cccc3OC)c(C(C)C)n2)nc1`, 119 to 120 °C.
In turn, `O=C(NCCCCCCOC(=O)N1CCC(O)CC1)Oc1ccc(Oc2ccccc2)cc1` showed a melting point of 48 to 55 °C.
The molecule `c1cnc2c(c1)NCCCC2` showed a melting point of 70 to 71 °C.
With `CC(C)(C)OC(=O)N1CCN(CC(=O)N2CCC3(CC2)Cn2cc([N+](=O)[O-])nc2O3)CC1` the figure was 211 to 213 °C.
With `O=c1ccc2cc(-n3cnnc3)cc(C(F)(F)F)c2[nH]1` the figure was greater than 320 °C.
As for `CC(=O)NC(CCc1ccc(C=O)cc1)(COC(C)=O)COC(C)=O`, the melting point was in the range of 98 to 100 °C.
With `Cc1cc(Br)cnc1CCCCNc1ncc(Cc2ccc(CO)nc2)c(=O)[nH]1` the figure was 61 to 70 °C; with `CCCc1c(O)c(C(C)=O)cc2c1CCCC2`, 52 to 53 °C; with `CCCCCCCCCCCCCCCC(=O)C1=C(O)COC1=O`, 81 to 83 °C.
With `O=C(Nc1ccc(Cl)cn1)c1nc(-c2ccccc2)c2ccccc2c1O` the figure was 249 to 251 °C; with `CC(=O)NC[C@H]1CN(c2ccc(C3=CN(C(=O)CO)CCC3)c(F)c2)C(=O)O1`, 171 to 173 °C.
With `CN(c1ccccc1)S(=O)(=O)N[C@@H](Cc1ccc(NC(=O)c2c(Cl)cccc2Cl)cc1)C(=O)O` the figure was 117 °C; with `CCCOc1ccc(Cl)cc1C1=NC(=O)C2=NC=NC2=N1`, 277 to 279 °C.
`O=c1c2cc(F)c(N3CCCC3)cc2n(CCF)c(=O)n1O` had a melting point of 228 to 230 °C.
With `Cc1oc(-c2ccccc2)nc1COc1ccc(I)cn1` the figure was 129 to 130 °C; with `Oc1c2c(nn1-c1ccccn1)CCc1ccccc1-2`, 145 to 146 °C; with `CCCCc1nn(Cc2ccccc2C(=O)OC)c(=O)n1Cc1ccc(-c2ccccc2-c2nnn[nH]2)cc1`, 79 to 80 °C.
For the molecule `CCc1nc2c(N)nc3ccccc3c2n1CCCCS(=O)(=O)N(C)C`, the melting point lay within 193 to 195 °C.
`CCOC(=O)c1ccnc(-c2nc(=O)c3ccccc3s2)c1`: the melting point fell in the range of 236 to 237 °C.
With `O=C([C@@H]1CCCN1S(=O)(=O)c1ccc2ccccc2c1)N1C[C@@H](c2ccc(Cl)cc2)Sc2ccccc21` the figure was 147 to 151 °C; with `CN(C)C(=O)c1cc2c(OC[C@H](O)CN3CCC(c4ccc5ccccc5c4)CC3)cccc2[nH]1`, 158 to 160 °C.
With `CC1=C(C(=O)OCC(Cl)(Cl)Cl)N2C(=O)C(NC(=O)Cc3ccccc3)C2SC1` (stereo not given) the figure was 162 °C; with `CCCCCn1ncc(C#N)c1N`, 143 to 144 °C; with `CC(=O)OCc1c(S(C)(=O)=O)ccc(C(=O)O)c1Cl`, 219 to 223 °C.
Under `COc1nc2cc([N+](=O)[O-])c(C)c(C(=O)N3CCNCC3)c2nc1OC` stands 150 to 152 °C; under `CC(C)C(C)(C)[Si](C)(C)Oc1ccc2c(c1)c(I)c1n2CCC1`, 97 to 98 °C; under `CCOc1cc2ncc(C#N)c(Nc3ccc4c(c3)C(=O)NC4=O)c2cc1OCC`, 248 to 251 °C.
Consider `O=C(O)C=CC(=O)c1ccc(F)cc1`, for which the melting point was in the range of 130 to 132 °C.
With `FC(F)(F)c1cc(C(F)(F)F)c2nc(N3CCN(c4ncccc4C(F)(F)F)CC3)[nH]c2c1` the figure was 142 °C; with `Nc1cc(N2CCN(C(c3ccccc3)(c3ccccc3)c3ccccc3)CC2)nc(N)n1`, 152 to 160 °C; with `CCC(CO)Nc1ccc(-c2cccc(C(F)(F)F)c2)nn1` (stereo not given), 84 to 87 °C.
With `CC(=O)c1cn(Cc2ccccc2F)c(=O)n(Cc2ccccc2F)c1=O` the figure was 149 to 150 °C; with `CC(C)(C)OC(=O)NCc1ccc(-c2ccc(O)c(Br)c2)cc1`, 113 to 117 °C; with `CS(=O)(=O)c1ccc(-c2cc(CCCO)nn2C2CCCCC2)cc1`, 138 °C.
`CN(C)C1CCc2[nH]c3cccc(F)c3c2C1` (stereo not given) yielded a melting point of 166 to 168 °C.
With `COc1ccc(N2CCN(C)CC2)cc1-c1cnn2c(N)c(-c3cccc(Cl)c3)c(C)nc12` the figure was 116 to 121 °C; with `O=c1[nH]c2cc(Cl)c(Cl)cc2[n+]([O-])c1-c1cccc(Oc2ccccc2)c1`, 258 to 260 °C; with `CCOP(=O)(CNC(CCCc1ccccc1)c1cc(C(C)(C)C)c(O)c(C(C)(C)C)c1)OCC` (stereo not given), 93 to 94 °C.
Under `O=C(CN1CC=C(c2c[nH]c3cc(Cl)ccc23)CC1)Nc1ccccn1` stands 202 to 204 °C.
Under `O=C(NCc1ccccc1Cl)c1ccccc1CN1C(=O)C2(COc3cc4c(cc32)CCO4)c2ccccc21` (stereo not given) stands 148 to 150 °C.
Regarding `CC(=O)Nc1cccc(-c2cccnc2)c1`, the melting point lay within 72 to 74 °C.
Under `OC1CSC(Oc2cccc3ocnc23)C(O)C1O` (stereo not given) stands 172 °C.
In turn, `O=C(O)Cc1ccc(NC(=O)C(COc2ccccc2)NS(=O)(=O)c2ccc(Br)cc2)cc1` (racemic) had a melting point of 201 to 204 °C.
For `CCc1cn(C[C@@H](C)O)c2ccc(F)cc12`, the melting point lay in the range of 65 to 67 °C.
With `CC(C)(C)c1ccc(/C=N/OCCOc2ccc(C(=O)O)c(OC(=O)c3ccc(C(C)(C)C)cc3)c2)cc1` the figure was 148 to 150 °C.
Turning to `Nc1ccc(C(=O)C=Cc2ccncc2)cc1`, the melting point is 207 °C.
Molecule `CN(C)c1ccccc1CNC(=O)C1Cc2ccccc2N1S(=O)(=O)c1ccc(-c2cccc(C(F)(F)F)c2)cc1` (stereo not given) displayed a melting point of 66 °C.
The molecule `Oc1cc(Br)c(Cl)c(Br)c1` showed a melting point of 120 to 122 °C.
With `Cc1ncc(CSSCc2cnc(C)c(O)c2CN(C)C)c(CN(C)C)c1O` the figure was 195 to 201 °C; with `O=C(O)c1ccc2oc(-c3ccc(O)cc3)cc2c1`, greater than 300 °C; with `CN1C(=O)CC(c2c[nH]c3ccc(Br)cc23)C1=O` (stereo not given), 194 to 195 °C.
With `CCOC(=O)c1cnn(-c2ncc(Cl)cc2Cl)c1N` the figure was 98 to 101 °C.
Under `COc1ccc(C2COc3c(ccc(O)c3C)C2)cc1` (stereo not given) stands 140 to 141 °C; under `O=C1C2=C(C=C3OCCC13)CCCO2` (stereo not given), 101 °C.
Take `O=C(NCCO)c1cncc(-c2cccc3cc(Cc4cc(F)cc(Cl)c4)sc23)c1`: the melting point fell in the range of 126 to 127 °C.
Under `C#Cc1cccc(N2C(=O)c3ccc([N+](=O)[O-])cc3C2=O)c1` stands 257 to 259 °C.
